# Test results reported in US11147801B2, “Methods of use for trisubstituted benzotriazole derivatives as dihydroorotate oxygenase inhibitors” (Aurigene Discovery Technologies Limited, priority 2017, dated 2021).
# Test system: OCILY-19 tumors
# Test: OCILY-19 diffuse large B-cell lymphoma xenograft model
# Format: in vivo, CB17 SCID mice
# Method: 7×10^6 OCILY-19 cells were implanted subcutaneously into CB17 SCID mice. Mice (n=15-18/group) were treated with vehicle or Compound 1 at the indicated dose/frequency once tumors reached an average of ˜150 mm^3. Tissues were collected at the indicated timepoints post-last dose for PK and biomarker analyses.
smiles,measurement,setting,value
"Cc1ccccc1-c1ccc(-c2cc(C(=O)O)c3c(c2)nnn3C)cc1 [Compound 1, 1-methyl-5-(2′-methyl-[1,1′-biphenyl]-4-yl)-1H-benzo[d][1,2,3]triazole-7-carboxylic Acid]",Efficacy of dosing regimen,100 mg/kg BID compared to 10 and 30 mg/kg BID,superior efficacy
same,Tumor DHO,"100 mg/kg BID versus 10 and 30 mg/kg BID, OCILY-19 tumors",larger increase
same,Total tumor uridine pools,"100 mg/kg BID, OCILY-19 tumors",decrease
same,Efficacy of dosing regimen,200 mg/kg QD compared to 100 mg/kg BID,less efficacious
same,In vivo tumor growth,"OCILY-19 DLBCL xenograft, CB17 SCID mice",strong block in in vivo tumor growth
same,Half-life in mice,mice,short half-life
